In patent publication US20050022267A1, “Methods for Agrobacterium-mediated transformation of dandelion” (priority 2003, published 2005):

Legend:
dandelion leaf explants [1] = experiment: Effect of phyto-hormones on dandelion regeneration: adventitious shoot formation of leaf explants on seedling media; format: cell-based; settings: for number of regenerated shoots per explant / percentage of leaf explants displaying adventitious shoot formation: four weeks
Protocol: Dandelion seeds are surface-sterilized in approximately 70% (volume/volume, v/v) ethanol for 30 sec in the bottle. The ethanol is removed and the seeds are soaked in approximately 1% (v/v) bleach with gentle agitation for about 15 minutes. The bleach is poured off and the […] are rinsed thoroughly about 3-4 times with sterilized distilled water. Seeds are germinated and in vitro cultured in the sterile bottles containing seedling medium (Table 1). Over one month-old seedlings are used as stock plants for leaf and root explants. The leaves and roots of stock plants are placed in a petri plate with droplets of sterile water. Explants of leaves (ca. 0.5 cm in diameter) and of roots (ca. 0.5 cm in length) were excised from dandelion plants. Approximately 15 to 20 explants per plate are positioned with the adaxial surface down onto pre-incubation medium (Table 2). The plates are incubated under mixed white and red lights for about 6 days at about 22° C. […] Parentheses indicate the number of regenerated shoots per explant.

dandelion leaf explants [2] = experiment: Effect of maltose on shoot regeneration in shoot induction media; format: cell-based; settings: 1% maltose (w/v) in shoot induction media
Protocol: Leaf explants derived from dandelion plants were cultured in shoot induction media containing no maltose (w/v) or 1% maltose (w/v) to compare the efficacy of maltose on shoot production.

[3] = isolated from dandelion roots; cited from earlier work
[4] = α-naphthalene acetic acid 0.1 mg/L, 6-benzyladenine 0 mg/L
[5] = α-naphthalene acetic acid 0.1 mg/L, kinetin 0 mg/L
[6] = α-naphthalene acetic acid 0.5 mg/L, 6-benzyladenine 0 mg/L
[7] = α-naphthalene acetic acid 0.5 mg/L, kinetin 0 mg/L
[8] = α-naphthalene acetic acid 1.0 mg/L, 6-benzyladenine 0 mg/L
[9] = α-naphthalene acetic acid 1.0 mg/L, kinetin 0 mg/L
[10] = α-naphthalene acetic acid 2.0 mg/L, 6-benzyladenine 0 mg/L
[11] = α-naphthalene acetic acid 2.0 mg/L, kinetin 0 mg/L
[12] = kinetin 0.5 mg/L, α-naphthalene acetic acid 0 mg/L
[13] = kinetin 0.5 mg/L, α-naphthalene acetic acid 0.1 mg/L
[14] = kinetin 0.5 mg/L, α-naphthalene acetic acid 0.5 mg/L
[15] = kinetin 0.5 mg/L, α-naphthalene acetic acid 1.0 mg/L
[16] = kinetin 0.5 mg/L, α-naphthalene acetic acid 2.0 mg/L
[17] = kinetin 1.0 mg/L, α-naphthalene acetic acid 0 mg/L
[18] = kinetin 1.0 mg/L, α-naphthalene acetic acid 0.1 mg/L
[19] = kinetin 1.0 mg/L, α-naphthalene acetic acid 0.5 mg/L
[20] = kinetin 1.0 mg/L, α-naphthalene acetic acid 1.0 mg/L
[21] = kinetin 1.0 mg/L, α-naphthalene acetic acid 2.0 mg/L
[22] = kinetin 2.0 mg/L, α-naphthalene acetic acid 0 mg/L
[23] = kinetin 2.0 mg/L, α-naphthalene acetic acid 0.1 mg/L
[24] = kinetin 2.0 mg/L, α-naphthalene acetic acid 0.5 mg/L
[25] = kinetin 2.0 mg/L, α-naphthalene acetic acid 1.0 mg/L
[26] = kinetin 2.0 mg/L, α-naphthalene acetic acid 2.0 mg/L
[27] = kinetin 3.0 mg/L, α-naphthalene acetic acid 0 mg/L
[28] = kinetin 3.0 mg/L, α-naphthalene acetic acid 0.1 mg/L
[29] = kinetin 3.0 mg/L, α-naphthalene acetic acid 0.5 mg/L
[30] = kinetin 3.0 mg/L, α-naphthalene acetic acid 1.0 mg/L
[31] = kinetin 3.0 mg/L, α-naphthalene acetic acid 2.0 mg/L
[32] = 6-benzyladenine 0.25 mg/L, α-naphthalene acetic acid 0 mg/L
[33] = 6-benzyladenine 0.25 mg/L, α-naphthalene acetic acid 0.1 mg/L
[34] = 6-benzyladenine 0.25 mg/L, α-naphthalene acetic acid 0.5 mg/L
[35] = 6-benzyladenine 0.25 mg/L, α-naphthalene acetic acid 1.0 mg/L
[36] = 6-benzyladenine 0.25 mg/L, α-naphthalene acetic acid 2.0 mg/L
[37] = 6-benzyladenine 0.5 mg/L, α-naphthalene acetic acid 0 mg/L
[38] = 6-benzyladenine 0.5 mg/L, α-naphthalene acetic acid 0.1 mg/L
[39] = 6-benzyladenine 0.5 mg/L, α-naphthalene acetic acid 0.5 mg/L
[40] = 6-benzyladenine 0.5 mg/L, α-naphthalene acetic acid 1.0 mg/L
[41] = 6-benzyladenine 0.5 mg/L, α-naphthalene acetic acid 2.0 mg/L
[42] = 6-benzyladenine 1.0 mg/L, α-naphthalene acetic acid 0 mg/L
[43] = 6-benzyladenine 1.0 mg/L, α-naphthalene acetic acid 0.1 mg/L
[44] = 6-benzyladenine 1.0 mg/L, α-naphthalene acetic acid 0.5 mg/L
[45] = 6-benzyladenine 1.0 mg/L, α-naphthalene acetic acid 1.0 mg/L
[46] = 6-benzyladenine 1.0 mg/L, α-naphthalene acetic acid 2.0 mg/L
[47] = 6-benzyladenine 2.0 mg/L, α-naphthalene acetic acid 0 mg/L
[48] = 6-benzyladenine 2.0 mg/L, α-naphthalene acetic acid 0.1 mg/L
[49] = 6-benzyladenine 2.0 mg/L, α-naphthalene acetic acid 0.5 mg/L
[50] = 6-benzyladenine 2.0 mg/L, α-naphthalene acetic acid 1.0 mg/L
[51] = 6-benzyladenine 2.0 mg/L, α-naphthalene acetic acid 2.0 mg/L

## O=C(O)Cc1cccc2ccccc12 [α-Naphthalene acetic acid, α-naphthalene acetic acid]
Dandelion leaf explants [1]; [4]
  number of regenerated shoots per explant: (0.0) shoots per explant
  percentage of leaf explants displaying adventitious shoot formation: 0.0%
Dandelion leaf explants [1]; [5]
  number of regenerated shoots per explant: (0.0) shoots per explant
  percentage of leaf explants displaying adventitious shoot formation: 0.0%
Dandelion leaf explants [1]; [6]
  number of regenerated shoots per explant: (2.0) shoots per explant
  percentage of leaf explants displaying adventitious shoot formation: 20.0%
Dandelion leaf explants [1]; [7]
  number of regenerated shoots per explant: (0.0) shoots per explant
  percentage of leaf explants displaying adventitious shoot formation: 0.0%
Dandelion leaf explants [1]; [8]
  number of regenerated shoots per explant: (0.0) shoots per explant
  percentage of leaf explants displaying adventitious shoot formation: 0.0%
Dandelion leaf explants [1]; [9]
  number of regenerated shoots per explant: (0.0) shoots per explant
  percentage of leaf explants displaying adventitious shoot formation: 5.0%
Dandelion leaf explants [1]; [10]
  number of regenerated shoots per explant: (0.0) shoots per explant
  percentage of leaf explants displaying adventitious shoot formation: 0.0%
Dandelion leaf explants [1]; [11]
  number of regenerated shoots per explant: (0.0) shoots per explant
  percentage of leaf explants displaying adventitious shoot formation: 0.0%

## OC[C@H]1O[C@H](O[C@H]2[C@H](O)[C@@H](O)C(O)O[C@@H]2CO)[C@H](O)[C@@H](O)[C@@H]1O (mixture of isomers) [Maltose, maltose]
Dandelion leaf explants [2]
  shoot production in comparison to no maltose: improves shoot production
Dandelion leaf explants [2]; leaf explants
  # of Shoots per Explants: 25

## C=C1CC[C@]2(C)CC[C@]3(C)[C@H](CC[C@@H]4[C@@]5(C)CC[C@H](O)C(C)(C)[C@@H]5CC[C@]43C)[C@H]2[C@@H]1C [taraxasterol]
[3]
  anti-tumor-promoting activity: potent anti-tumor-promoting activity

## CC1(C)CC[C@]2(C)CC=C3[C@]4(C)CC[C@H]5C(C)(C)[C@@H](O)CC[C@]5(C)[C@H]4CC[C@@]3(C)[C@@H]2C1 [taraxerol]
[3]
  anti-tumor-promoting activity: potent anti-tumor-promoting activity

## c1coc(CNc2ncnc3[nH]cnc23)c1 [Kinetin, kinetin]
Dandelion leaf explants [1]; 0.05 mg/l α-naphthalene acetic acid and 1.0 mg/l kinetin or 0.1 mg/l α-naphthalene acetic acid and 2.0 mg/l kinetin
  suitability for dandelion shoot regeneration: also suitable for dandelion shoot regeneration
Dandelion leaf explants [1]; [12]
  number of regenerated shoots per explant: (24.8) shoots per explant
  percentage of leaf explants displaying adventitious shoot formation: 99.9%
Dandelion leaf explants [1]; [13]
  number of regenerated shoots per explant: (19.8) shoots per explant
  percentage of leaf explants displaying adventitious shoot formation: 96.7%
Dandelion leaf explants [1]; [14]
  number of regenerated shoots per explant: (16.9) shoots per explant
  percentage of leaf explants displaying adventitious shoot formation: 99.9%
Dandelion leaf explants [1]; [15]
  number of regenerated shoots per explant: (8.1) shoots per explant
  percentage of leaf explants displaying adventitious shoot formation: 99.9%
Dandelion leaf explants [1]; [16]
  number of regenerated shoots per explant: (5.8) shoots per explant
  percentage of leaf explants displaying adventitious shoot formation: 99.9%
Dandelion leaf explants [1]; [17]
  number of regenerated shoots per explant: (22.7) shoots per explant
  percentage of leaf explants displaying adventitious shoot formation: 99.9%
Dandelion leaf explants [1]; [18]
  number of regenerated shoots per explant: (23.4) shoots per explant
  percentage of leaf explants displaying adventitious shoot formation: 99.9%
Dandelion leaf explants [1]; [19]
  number of regenerated shoots per explant: (16.8) shoots per explant
  percentage of leaf explants displaying adventitious shoot formation: 99.9%
Dandelion leaf explants [1]; [20]
  number of regenerated shoots per explant: (6.7) shoots per explant
  percentage of leaf explants displaying adventitious shoot formation: 99.9%
Dandelion leaf explants [1]; [21]
  number of regenerated shoots per explant: (9.8) shoots per explant
  percentage of leaf explants displaying adventitious shoot formation: 99.9%
Dandelion leaf explants [1]; [22]
  number of regenerated shoots per explant: (21.9) shoots per explant
  percentage of leaf explants displaying adventitious shoot formation: 95.0%
Dandelion leaf explants [1]; [23]
  number of regenerated shoots per explant: (23.6) shoots per explant
  percentage of leaf explants displaying adventitious shoot formation: 99.9%
Dandelion leaf explants [1]; [24]
  number of regenerated shoots per explant: (20.3) shoots per explant
  percentage of leaf explants displaying adventitious shoot formation: 99.9%
Dandelion leaf explants [1]; [25]
  number of regenerated shoots per explant: (13.4) shoots per explant
  percentage of leaf explants displaying adventitious shoot formation: 95.5%
Dandelion leaf explants [1]; [26]
  number of regenerated shoots per explant: (7.3) shoots per explant
  percentage of leaf explants displaying adventitious shoot formation: 96.2%
Dandelion leaf explants [1]; [27]
  number of regenerated shoots per explant: (14.7) shoots per explant
  percentage of leaf explants displaying adventitious shoot formation: 99.9%
Dandelion leaf explants [1]; [28]
  number of regenerated shoots per explant: (19.3) shoots per explant
  percentage of leaf explants displaying adventitious shoot formation: 99.9%
Dandelion leaf explants [1]; [29]
  number of regenerated shoots per explant: (25.5) shoots per explant
  percentage of leaf explants displaying adventitious shoot formation: 99.9%
Dandelion leaf explants [1]; [30]
  number of regenerated shoots per explant: (8.9) shoots per explant
  percentage of leaf explants displaying adventitious shoot formation: 99.9%
Dandelion leaf explants [1]; [31]
  number of regenerated shoots per explant: (8.1) shoots per explant
  percentage of leaf explants displaying adventitious shoot formation: 99.9%

## 6-benzyladenine
Dandelion leaf explants [1]; 1 or 2 mg/l 6-benzyladenine and 0.1 mg/l α-naphthalene acetic acid
  suitability for shoot regeneration of dandelion: most suitable for shoot regeneration
Dandelion leaf explants [1]; [32]
  number of regenerated shoots per explant: (21.2) shoots per explant
  percentage of leaf explants displaying adventitious shoot formation: 60.0%
Dandelion leaf explants [1]; [33]
  number of regenerated shoots per explant: (16.3) shoots per explant
  percentage of leaf explants displaying adventitious shoot formation: 63.0%
Dandelion leaf explants [1]; [34]
  number of regenerated shoots per explant: (12.0) shoots per explant
  percentage of leaf explants displaying adventitious shoot formation: 78.0%
Dandelion leaf explants [1]; [35]
  number of regenerated shoots per explant: (24.5) shoots per explant
  percentage of leaf explants displaying adventitious shoot formation: 97.0%
Dandelion leaf explants [1]; [36]
  number of regenerated shoots per explant: (3.6) shoots per explant
  percentage of leaf explants displaying adventitious shoot formation: 90.0%
Dandelion leaf explants [1]; [37]
  number of regenerated shoots per explant: (17.4) shoots per explant
  percentage of leaf explants displaying adventitious shoot formation: 75.0%
Dandelion leaf explants [1]; [38]
  number of regenerated shoots per explant: (23.8) shoots per explant
  percentage of leaf explants displaying adventitious shoot formation: 99.9%
Dandelion leaf explants [1]; [39]
  number of regenerated shoots per explant: (23.7) shoots per explant
  percentage of leaf explants displaying adventitious shoot formation: 99.9%
Dandelion leaf explants [1]; [40]
  number of regenerated shoots per explant: (21.7) shoots per explant
  percentage of leaf explants displaying adventitious shoot formation: 88.0%
Dandelion leaf explants [1]; [41]
  number of regenerated shoots per explant: (3.2) shoots per explant
  percentage of leaf explants displaying adventitious shoot formation: 40.0%
Dandelion leaf explants [1]; [42]
  number of regenerated shoots per explant: (17.4) shoots per explant
  percentage of leaf explants displaying adventitious shoot formation: 85.0%
Dandelion leaf explants [1]; [43]
  number of regenerated shoots per explant: (25.1) shoots per explant
  percentage of leaf explants displaying adventitious shoot formation: 99.9%
Dandelion leaf explants [1]; [44]
  number of regenerated shoots per explant: (20.4) shoots per explant
  percentage of leaf explants displaying adventitious shoot formation: 99.9%
Dandelion leaf explants [1]; [45]
  number of regenerated shoots per explant: (13.1) shoots per explant
  percentage of leaf explants displaying adventitious shoot formation: 83.0%
Dandelion leaf explants [1]; [46]
  number of regenerated shoots per explant: (5.9) shoots per explant
  percentage of leaf explants displaying adventitious shoot formation: 99.9%
Dandelion leaf explants [1]; [47]
  number of regenerated shoots per explant: (16.0) shoots per explant
  percentage of leaf explants displaying adventitious shoot formation: 99.9%
Dandelion leaf explants [1]; [48]
  number of regenerated shoots per explant: (17.4) shoots per explant
  percentage of leaf explants displaying adventitious shoot formation: 99.9%
Dandelion leaf explants [1]; [49]
  number of regenerated shoots per explant: (20.7) shoots per explant
  percentage of leaf explants displaying adventitious shoot formation: 99.9%
Dandelion leaf explants [1]; [50]
  number of regenerated shoots per explant: (8.5) shoots per explant
  percentage of leaf explants displaying adventitious shoot formation: 99.9%
Dandelion leaf explants [1]; [51]
  number of regenerated shoots per explant: (5.4) shoots per explant
  percentage of leaf explants displaying adventitious shoot formation: 99.9%
